Assay results taken from patent US20190254285A1, “SODIUM PHOSPHITE COMBINATIONS” (priority 2016, published 2019).

Tests used:
Type in all cases: in vivo
[1] = test system: black sigatoka; assay: Black sigatoka on banana plants, single leaf test, leaf 1 preventive, VOLLEY 88 OL; conditions: for Area infected (%) / Efficacy: VOLLEY 88 OL 5.525 L/ha, phosphites 2 mol/l at 3 liter/ha; for Efficacy: vs untreated control
Description: (§1) A single leaf test was established in a research station located in the community of “Anita Grande,” county of Jimenez, province of Limon, Costa Rica (latitude 10°15′14.15″N, longitude 83°44′20.29″W).
(§2) Every treatment was established in individual plants. Treatments were applied to leaf number 1 to determine their effect as preventive. Leaf position is counted from top to bottom, whereby leaf number 1 is closest to the unfolded leaf. Treatments were distributed systematically to facilitate their location in the field.
(§3) Product applications were done in an area of 10×10 cm, with a special equipment designed to simulate aerial applications. Application was done at 35 pound-force per square inch. Since weather conditions were highly conducive for disease development, and inoculum density was very high, no artificial inoculation was done. All treatments were applied to the same position on the leaf to minimize experimental error. All treatments were applied at the equivalent volume of 25 L ha^−1, as it is done commercially. A total of 3 sprays were applied, application A at Day 0, application B at 7 days after application A (DAA), and application C at day 13 DAA. VOLLEY® 88 OL was sprayed at 5.525 L/ha and the different phosphites were applied at the same PO3 concentration of 2 mol/l and were sprayed at 3 liter/ha.
Mixture of products was done with an electric stirrer (DEWALT® General Purpose, model DW9107), equipped with a standard propel.
(§4) For the evaluation of the efficacy, the diseased area that was affected in the 10×10 cm leaf area was recorded. Evaluations were done 23, 30 and 36 DAA. Efficacy was calculated by comparing the treatments against the untreated control.

[2] = test system: black sigatoka; assay: Black sigatoka on banana plants, single leaf test, leaf 1 preventive, DITHANE 60 SC; conditions: for Area infected (%) / Efficacy: 23 DAA, leaf 1 preventive, DITHANE 60 SC 5 liter/ha; for Area infected (%): phosphites 2 mol/l at 3 liter/ha; for Efficacy: vs untreated control
Description: as §1, §2, §3, §4
(§5) Similar to Example 8, with the following differences: DITHANE® 60 SC (Dow AgroSciences) at a rate of 5 liter/ha was applied instead of […] and only one measurement was performed at 23 days after application A (DAA).

[3] = test system: black sigatoka; assay: Black sigatoka on banana plants, single leaf test, leaf 3 curative, DITHANE 60 SC; conditions: for Area infected (%) / Efficacy: 8 DAA, leaf 3 curative, DITHANE 60 SC 5 liter/ha; for Area infected (%): phosphites 2 mol/l at 3 liter/ha; for Efficacy: vs untreated control
Description: as §1, §2, §3, §4, §5
Similar to Example 9, with the following differences: Treatments and measurements were applied to leaf number 3, to determine their effect as curative, and one measurement was performed at 8 days after application A (DAA).

[4] = test system: powdery mildew; assay: Powdery mildew on cucumber leaf disks; conditions: for Surface area (%): phosphite 16 mM, sulfur 0.1 g/L
Description: (§6) Leaves were taken from 5 to 6 week old tomato plant. Per treatment 5 ml was sprayed over 5 leaves and dried for 1 hour. Circular disks were punched from the treated leaves with a diameter of 11 mm. 5 disks per treatment were put on water agar in 90 mm ø petri dishes. Water agar was made by sterilizing agar-agar (5 g/L, Carl Roth), benzimidazole (30 mg/L, Sigma-Aldrich) and antibiotic tetracycline hydrochloride (25 mg/L, Carl Roth) in water. Disks were infected by brushing powdery mildew spores from an infected leave until disks were visually covered by spores. After 10 days the surface area covered by powdery mildew was measured by putting pictures of the disks through an online image analyzer. Efficacy was calculated by comparing the treatments against the untreated control. Replicates: 20 disks were used per treatment.
All phosphite concentrations were tested at a concentration of 16 mM of phosphite.
Similar to Example 7 with the following differences: Leaf disk were taken from the dicotyledon leaves when the cucumber was around 2 weeks old. 5 disks per treatment were put on water agar in 90 mm ø petri dishes, with a total of 10 leaf disks per treatment. The formulated sulfur was tested at a concentration of 0.1 g sulfur/L. Assessment was done after 14 and 21 days after infection.

[5] = test system: powdery mildew; assay: Powdery mildew on tomato leaf disks; conditions: for Surface area (%): leaf disk area covered by powdery mildew after 10 days, phosphite 16 mM, sulfur 0.5 g per liter
Description: as §6, with “After 10 days the surface area covered by powdery mildew was measured by putting pictures of the disks through an online image analyzer.” left out, “treatment. All phosphite concentrations were tested at a concentration of 16 mM of phosphite. Formulated sulfur was applied at a dose of 0.5 g sulfur per liter. Formulated sulfur consists of the following elements: Sulfur±50% (w/w); Anionic surfactant<3%; Non-ionic surfactant <3%; Water±44%.” for “treatment.”

[6] = test system: Penicillium discolor; assay: Penicillium discolor rot on wounded apples cv Gala; conditions: for Efficacy (%): rot surface area vs untreated control, phosphite 16 mM, natamycin 100 ppm
Description: Tested fruit: apples cv Gala from organic origin/SKAL certified. SKAL is a semi-governmental Dutch organization that controls organic production in the Netherlands. Wounds of the apples were checked at day 3. All phosphite concentrations were tested at a concentration of 16 mM of phosphonate. Natamycin (95%, Freda) solo and in combination was tested at a concentration of 100 ppm. […] Used pathogen: Penicillium discolor spore-suspension containing 4*10E6 spores/ml. Application: The fruit peel of the apple was damaged with a cork borer, ø4 mm and depth ˜0.5 cm into the fruit, with 2 wounds per apple. 40 microliter of a freshly prepared spore suspension of P. discolor was applied by pipette onto each wound. Subsequently, the spore-suspension was allowed to air-dry for 4 hours. Then, 50 microliter of a treatment as presented in the list above was applied by pipette to each wound. All fruits were kept at room temperature (20° C.). Wounds of the apples were checked after 4, 7 and 9 days of incubation. The efficacy is calculated by measuring the surface area (square mm) of the rot on the apples, and compared to the untreated control (see Table 4). Replicates: All treatments for the apple experiment were performed on six individual apples with two wounds each resulting in 12 wounds per treatment.

| Compound | Area infected (%) ([1]; 23 DAA) | Efficacy ([1]; 23 DAA) | Area infected (%) ([1]; 30 DAA) | Efficacy ([1]; 30 DAA) | Area infected (%) ([1]; 36 DAA) | Efficacy ([1]; 36 DAA) | Area infected (%) [2] [%] | Efficacy [2] | Area infected (%) [3] [%] | Efficacy [3] | Surface area (%) ([4]; Day 14 after infection) | Surface area (%) ([4]; Day 21 after infection) | Surface area (%) [5] [%] | Efficacy (%) ([6]; Day 4) | Efficacy (%) ([6]; Day 7) | Efficacy (%) ([6]; Day 9) | also measured |
| --- | --- | --- | --- | --- | --- | --- | --- | --- | --- | --- | --- | --- | --- | --- | --- | --- | --- |
| disodium hydrogen phosphite [Na2HPO3] | 18.8 | 1.1 | 31.0 | 27.9 | 38.0 | 26.9 | 12.6 | 33.7 | 15.4 | 30.6 | 9.15 | 7.38 | 51.20 | 88 | 74 | 64 | Increase of the fungal efficacy of VOLLEY 88 OL compared with other phosphite salts ([1]; conclusion from Table 8): increases the fungal efficacy of VOLLEY® 88 OL the best; Increase of the fungal efficacy of DITHANE 60 SC compared with other phosphite salts ([2]; conclusion from Table 9, preventive): increases the fungal efficacy of DITHANE® 60 SC the best; Increase of the fungal efficacy of DITHANE 60 SC compared with other phosphite salts ([3]; conclusion from Table 10, curative): increases the fungal efficacy of DITHANE® 60 SC the best; Increase of the fungal efficacy of sulfur compared with other phosphite salts ([4]; conclusion from Table 12): increases the fungal efficacy of sulfur the best; Increase of the fungal efficacy of sulphur compared with other phosphite salts ([5]; conclusion from Table 7): increases the fungal efficacy of sulphur the best; Increase of the fungal efficacy of natamycin compared with other phosphite salts ([6]; equimolar phosphite concentrations, days 4, 7, 9): increases the fungal efficacy of natamycin the best at all time points |
| N.N.O=[PH](O)O [(NH4)2HPO3] | 9.8 | 48.4 | 26.2 | 39.1 | 34.0 | 34.4 | 8.0 | 57.9 | 9.2 | 58.6 | 7.21 | 5.61 | 66.32 | 71 | 60 | 55 | – |
| O=[PH]([O-])[O-].[K+].[K+] [Treatment K2HPO3] | 9.2 | 51.6 | 26.4 | 38.6 | 33.0 | 26.5 | 10.6 | 44.2 | 12.6 | 43.2 | 5.18 | 4.84 | 58.68 | 59 | 27 | 22 | – |
